# Measurements as given in patent publication EP4678638A1, “NEW E3 UBIQUITIN LIGASE LIGAND, PROTEIN DEGRADATION AGENT AND USE THEREOF” (priority 2023, dated 2024).
# Assays:
# MCF7 = experiment: CCK-8 proliferation, MCF7 (MCF-7); format: cell-based; details: Homo sapiens, MCF7; CCK-8; read-out: Inhibitory activity (IC50) on tumor cell proliferation, MCF7
# Procedure, shortened: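 Cells seeded, then after 24 h treated with 10 concentrations (top 10 µM, 5-fold serial dilution) for a line-specific time at 37°C, 5% CO2. Viability read by CCK-8; IC50 fitted from growth-inhibition curves.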
# CDK4 = biological target: T1, CDK4 (Homo sapiens, UniProt P11802); experiment: Western blot degradation of CDK4 (MDA-MB-231 Cell); format: cell-based; details: Table D3
# T1 construct: evaluate the effects of the compounds of the present disclosure on the expression of target proteins in cells; endogenous in cells; host or cells: MDA-MB-231
# T1 sequence (P11802 whole entry): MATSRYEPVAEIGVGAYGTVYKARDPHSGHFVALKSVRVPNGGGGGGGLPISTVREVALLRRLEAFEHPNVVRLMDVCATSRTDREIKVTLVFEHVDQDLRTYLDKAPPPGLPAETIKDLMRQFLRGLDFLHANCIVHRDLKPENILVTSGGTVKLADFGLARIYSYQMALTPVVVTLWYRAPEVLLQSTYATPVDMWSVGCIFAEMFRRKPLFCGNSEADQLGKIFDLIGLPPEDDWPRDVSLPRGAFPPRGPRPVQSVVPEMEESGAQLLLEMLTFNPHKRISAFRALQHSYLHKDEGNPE
# Procedure, shortened: (§1)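 Quantification by ImageJ densitometry of Western blot bands: DC50 is the fitted concentration halving band intensity relative to DMSO. Percent remaining uses internal-control normalization, and degradation rate is its complement.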
# CDK6 = biological target: T2, CDK6 (Homo sapiens, UniProt Q00534); experiment: Western blot degradation of CDK6 (MDA-MB-231 Cell); format: cell-based; details: Table D3
# T2 construct: evaluate the effects of the compounds of the present disclosure on the expression of target proteins in cells; endogenous in cells; host or cells: MDA-MB-231
# T2 sequence (Q00534 whole entry): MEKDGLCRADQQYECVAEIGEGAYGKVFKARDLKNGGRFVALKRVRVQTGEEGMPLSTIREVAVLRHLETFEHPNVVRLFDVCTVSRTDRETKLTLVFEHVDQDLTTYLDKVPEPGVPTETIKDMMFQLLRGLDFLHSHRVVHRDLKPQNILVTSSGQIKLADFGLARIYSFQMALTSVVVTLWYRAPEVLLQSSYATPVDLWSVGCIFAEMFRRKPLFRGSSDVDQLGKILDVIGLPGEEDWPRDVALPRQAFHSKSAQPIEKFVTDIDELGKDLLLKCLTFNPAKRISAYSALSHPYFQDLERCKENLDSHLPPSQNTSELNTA
# Procedure, shortened: as §1
# CCRF-CEM = experiment: CCK-8 proliferation, CCRF-CEM; format: cell-based, Human; details: Homo sapiens, CCRF-CEM; CCK-8; 96 hours; read-out: Inhibitory activity (IC50) on tumor cell proliferation, CCRF-CEM
# Description: The tumor cells used herein were cultured in a cell culture medium listed in table A1 at 37°C in an incubator with 5% CO2. Prior to experimentation, all cell lines used were correctly identified by STR profiling, and tested negative for mycoplasma contamination using a mycoplasma detection kit through routine screenings. Table A1. Tumor cells and cell culture medium used in the present disclosure
# IC50 values of the compounds of the present disclosure (including the compounds in Table 1, and compounds of examples) were measured using the Meilun Cell Counting Kit-8 kit from Dalian Meilun Biotech Co., Ltd. Assay details are as follows: tumor cells were seeded in a 96-well plate at a density listed in Table A2. After 24h, 100 µL of the inoculated cells were treated with 0.5µL of the compounds of the present disclosure (including the compounds in Tables 1 and 2, and compounds of examples) at 10 different successively decreasing concentrations (starting at the highest concentration of 10µM; 5-fold serial dilutions). After the cells were treated with the compounds of the present disclosure for a period of time, the cell viability detection reagent was added to the culture medium for cell viability assessment according to the instructions provided with the CCK-8 kit. […] The growth inhibition of the compounds of the present disclosure on cells was plotted by Prism Graphpad software, and the IC50 values of the compounds of the present disclosure were calculated therefrom. […] Seeding protocol and treatment time for tumor cells
# RSK1 = biological target: T3, RSK1 (Homo sapiens, UniProt Q15418); experiment: Western blot degradation of RSK1 (hPBMC); format: cell-based; details: Table D8
# T3 construct: evaluate the effects of the compounds of the present disclosure on the expression of target proteins in cells; endogenous in cells; host or cells: hPBMC
# T3 sequence (Q15418 whole entry): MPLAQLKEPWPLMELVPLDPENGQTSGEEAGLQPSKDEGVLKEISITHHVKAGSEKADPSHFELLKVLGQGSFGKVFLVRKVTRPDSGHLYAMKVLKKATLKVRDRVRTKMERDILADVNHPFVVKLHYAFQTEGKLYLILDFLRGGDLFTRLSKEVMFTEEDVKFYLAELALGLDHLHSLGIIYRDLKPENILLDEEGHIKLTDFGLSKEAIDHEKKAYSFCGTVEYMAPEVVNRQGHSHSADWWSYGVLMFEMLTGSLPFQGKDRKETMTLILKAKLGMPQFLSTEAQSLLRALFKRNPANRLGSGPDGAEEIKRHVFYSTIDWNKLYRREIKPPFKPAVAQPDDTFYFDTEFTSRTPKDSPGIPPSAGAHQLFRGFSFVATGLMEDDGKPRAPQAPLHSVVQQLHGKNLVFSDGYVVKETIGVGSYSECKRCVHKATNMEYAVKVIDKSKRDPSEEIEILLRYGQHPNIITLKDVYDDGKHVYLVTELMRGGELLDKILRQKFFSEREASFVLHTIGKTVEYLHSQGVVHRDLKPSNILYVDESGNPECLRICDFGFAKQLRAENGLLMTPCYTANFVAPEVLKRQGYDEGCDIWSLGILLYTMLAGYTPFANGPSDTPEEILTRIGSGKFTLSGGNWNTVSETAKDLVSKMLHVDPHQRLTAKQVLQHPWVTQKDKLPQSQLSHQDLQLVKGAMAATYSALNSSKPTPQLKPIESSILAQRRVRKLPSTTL
# Description: (§2) Conventional Western blot assay was performed to evaluate the effects of the compounds of the present disclosure on the expression of target proteins in cells.
# (§3) (1) Cell Seeding and Protein Harvesting: The selected cells were processed according to the cell seeding procedure and protein harvesting procedure in Table III-2. Table III-2 Cell Seeding and Protein Harvesting Procedures
# (§4) (2) To the collected supernatant, 5X SDS sample loading buffer was added, followed by denaturation at 95°C for 5 minutes. The denatured samples were then separated by SDS-PAGE electrophoresis on a polyacrylamide gel. Proteins were transferred to a nitrocellulose membrane (0.45 µm NC membrane), blocked with blocking buffer at room temperature for 1 hour, and subjected to antibody incubation and development procedures according to the antibody manufacturer's instructions (Cell Signaling Technology).
# (§5) Half-Maximal Degradation Concentration value (the drug concentration required for degrading proteins by 50%, abbreviated as DC50) reads method: comparing the grayscale values of Western blot bands from drug-treated samples with those from blank DMSO-treated controls, and identifying the drug concentration range at which the grayscale value is half that of the DMSO-treated control bands.
# (§6) DC50 values can be calculated using ImageJ software to measure grayscale values of Western blot bands from drug-treated samples. The concentration-response curve is fitted to estimate the drug concentration corresponding to half the grayscale value.
# (§7) Target protein remaining (%) refers to the percentage of target protein remaining in hPBMC cells after treatment with protein degrader compounds.
# (§8) Calculation method for target protein remaining (%): Use ImageJ software to measure grayscale values of Western blot bands from drug (protein degrader)-treated samples. The grayscale value of drug-treated bands is divided by that of internal control protein bands, and the resulting quotient is normalized to obtain the relative percentage of remaining target protein after protein degrader treatment.
# (§9) Target protein degradation rate (%) = 100% - target protein remaining (%).
# RSK2 = biological target: T4, RSK2 (Homo sapiens, UniProt P51812); experiment: Western blot degradation of RSK2 (hPBMC); format: cell-based; details: Table D8
# T4 construct: evaluate the effects of the compounds of the present disclosure on the expression of target proteins in cells; endogenous in cells; host or cells: hPBMC
# T4 sequence (P51812 whole entry): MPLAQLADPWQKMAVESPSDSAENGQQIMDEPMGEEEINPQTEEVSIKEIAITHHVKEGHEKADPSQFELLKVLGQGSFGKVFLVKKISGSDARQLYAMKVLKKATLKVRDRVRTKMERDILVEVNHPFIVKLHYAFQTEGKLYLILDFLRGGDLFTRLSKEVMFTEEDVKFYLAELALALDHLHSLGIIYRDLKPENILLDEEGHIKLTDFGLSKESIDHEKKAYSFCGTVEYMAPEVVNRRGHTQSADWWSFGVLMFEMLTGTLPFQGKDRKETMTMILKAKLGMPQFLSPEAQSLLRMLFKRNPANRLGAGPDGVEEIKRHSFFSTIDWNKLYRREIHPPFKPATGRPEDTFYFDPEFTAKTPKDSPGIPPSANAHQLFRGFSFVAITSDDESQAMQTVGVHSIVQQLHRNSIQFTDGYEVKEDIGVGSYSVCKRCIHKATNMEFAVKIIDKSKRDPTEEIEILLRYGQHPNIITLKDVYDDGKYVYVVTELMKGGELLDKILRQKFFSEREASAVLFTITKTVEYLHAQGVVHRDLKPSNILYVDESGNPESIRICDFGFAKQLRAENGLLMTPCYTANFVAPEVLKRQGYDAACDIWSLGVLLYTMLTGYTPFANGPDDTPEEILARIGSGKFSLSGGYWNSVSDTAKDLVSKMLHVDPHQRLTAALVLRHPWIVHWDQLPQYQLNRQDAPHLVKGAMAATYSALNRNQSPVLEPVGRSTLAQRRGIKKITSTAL
# Description: as §2, §3, §4, §5, §6, §7, §8, §9
IC50 (MCF7),IC50 (CCRF-CEM),SMILES,Degradation of substrate protein CDK4 (substrate protein remaining %) (CDK4),Degradation of substrate protein CDK6 (substrate protein remaining %) (CDK6),Degradation of substrate protein RSK1 (substrate protein remaining %) (RSK1),Degradation of substrate protein RSK2 (substrate protein remaining %) (RSK2)
500 to 1000 nM,–,"CC(=O)c1c(C)c2cnc(Nc3ccc(N4CCN(Cc5ccc(N6CCC(=O)NC6=O)cn5)CC4)cn3)nc2n(C2CCCC2)c1=O [GT-06578, 1-(6-((4-(6-((6-acetyl-8-cyclopentyl-5-methyl-7-oxo-7,8-dihydropyrido[2,3-d]pyrimidin-2-yl)amino)pyridin-3-yl)piperazin-1-yl)methyl)pyridin-3-yl)dihydropyrimidine-2,4(1H,3H)-dione]",B (B is defined as substrate protein remaining % > 80%),A (A is defined as 0% ≤ substrate protein remaining % ≤ 80%),–,–
500 to 1000 nM,–,"CC(=O)c1c(C)c2cnc(Nc3ccc(N4CCN(Cc5cccc(NC6CCC(=O)NC6=O)c5)CC4)cn3)nc2n(C2CCCC2)c1=O (stereo not shown) [GT-06580, 3-((3-((4-(6-((6-acetyl-8-cyclopentyl-5-methyl-7-oxo-7,8-dihydropyrido[2,3-d]pyrimidin-2-yl)amino)pyridin-3-yl)piperazin-1-yl)methyl)phenyl)amino)pip eridine-2,6-dione]",B (B is defined as substrate protein remaining % > 80%),A (A is defined as 0% ≤ substrate protein remaining % ≤ 80%),–,–
–,500 to 1000 nM,"CN(C)C(=O)c1cc2cnc(Nc3ccc(N4CCN(Cc5ccnc(N6CCC(=O)NC6=O)c5)CC4)cn3)nc2n1C1CCCC1 [GT-07475, 7-cyclopentyl-2-((5-(4-((2-(2,4-dioxotetrahydropyrimidin-1(2H)-yl)pyridin-4-yl)methyl)piperazin-1-yl)pyridin-2-yl)amino)-N,N-dimethyl-7H-pyrrolo[2,3-d]pyrimidine-6-carboxamide]",A (A is defined as 0% ≤ substrate protein remaining % ≤ 80%),A (A is defined as 0% ≤ substrate protein remaining % ≤ 80%),–,–
–,–,"C[C@@H]1CNC(=O)c2cc3ccc(C(=O)Nc4cnn(Cc5ccc(NCc6cc(N7CCC(=O)NC7=O)ncc6F)cc5)c4)nc3n21 [GT-07794, (R)-N-(1-(4-(((2-(2,4-dioxotetrahydropyrimidin-1(2H)-yl)-5-fluoropyridin-4-yl)methyl)amino)benzyl)-1H-pyrazol-4-yl)-9-methyl-6-oxo-6,7,8,9-tetrahydropyrido[3',2':4,5]pyrrolo[1,2-a]pyrazine-2-carboxamide]",–,–,A (A is defined as 0% ≤ substrate protein remaining % ≤ 80%),B (B is defined as substrate protein remaining % > 80%)
–,–,"C[C@@H]1CNC(=O)c2cc3ccc(C(=O)Nc4cnn(Cc5ccc(N6CCN(Cc7cc(N8CCC(=O)NC8=O)ncc7F)CC6)cc5)c4)nc3n21 [GT-07797, (R)-N-(1-(4-(4-((2-(2,4-dioxotetrahydropyrimidin-1(2H)-yl)-5-fluoropyridin-4-yl)methyl)piperazin-1-yl)benzyl)-1H-pyrazol-4-yl)-9-methyl-6-oxo-6,7,8,9-tetrahydropyrido[3',2':4,5]py rrolo[1,2-a]pyrazine-2-carboxamide]",–,–,A (A is defined as 0% ≤ substrate protein remaining % ≤ 80%),A (A is defined as 0% ≤ substrate protein remaining % ≤ 80%)
–,–,"C[C@@H]1CNC(=O)c2cc3ccc(C(=O)Nc4cnn(Cc5ccc(N6CCN(Cc7ccnc(N8CCC(=O)NC8=O)c7)CC6)cc5)c4)nc3n21 [GT-07798, (R)-N-(1-(4-(4-((2-(2,4-dioxotetrahydropyrimidin-1(2H)-yl)pyridin-4-yl)methyl)piperazin-1-yl)benzyl)-1H-pyrazol-4-yl)-9-methyl-6-oxo-6,7,8,9-tetrahydropyrido[3',2':4,5]py rrolo[1,2-a]pyrazine-2-carboxamide]",–,–,A (A is defined as 0% ≤ substrate protein remaining % ≤ 80%),A (A is defined as 0% ≤ substrate protein remaining % ≤ 80%)
–,–,"C[C@@H]1CNC(=O)c2cc3ccc(C(=O)Nc4cnn(Cc5ccc(N6CCN(Cc7cncc(N8CCC(=O)NC8=O)c7)CC6)cc5)c4)nc3n21 [GT-07925, (R)-N-(1-(4-(4-((5-(2,4-dioxotetrahydropyrimidin-1(2H)-yl)pyridin-3-yl)methyl)piperazin-1-yl)benzyl)-1H-pyrazol-4-yl)-9-methyl-6-oxo-6,7,8,9-tetrahydropyrido[3',2':4,5]py rrolo[1,2-a]pyrazine-2-carboxamide]",–,–,A (A is defined as 0% ≤ substrate protein remaining % ≤ 80%),B (B is defined as substrate protein remaining % > 80%)
–,–,"C[C@@H]1CNC(=O)c2cc3ccc(C(=O)Nc4cnn(Cc5ccc(N6CCN(Cc7ccc(N8CCC(=O)NC8=O)cc7)CC6)cc5)c4)nc3n21 [GT-07927, (R)-N-(1-(4-(4-(4-(2,4-dioxotetrahydropyrimidin-1(2H)-yl)benzyl)piperazin-1-yl)benzyl)-1H-pyrazol-4-yl)-9-methyl-6-oxo-6,7,8,9-tetrahydropyrido[3',2':4,5]py rrolo[1,2-a]pyrazine-2-carboxamide]",–,–,A (A is defined as 0% ≤ substrate protein remaining % ≤ 80%),A (A is defined as 0% ≤ substrate protein remaining % ≤ 80%)
–,–,"C[C@@H]1CNC(=O)c2cc3ccc(C(=O)Nc4cnn(Cc5ccc(N6CCN(Cc7cccc(N8CCC(=O)NC8=O)c7)CC6)cc5)c4)nc3n21 [GT-07928, (R)-N-(1-(4-(4-(3-(2,4-dioxotetrahydropyrimidin-1(2H)-yl)benzyl)piperazin-1-yl)benzyl)-1H-pyrazol-4-yl)-9-methyl-6-oxo-6,7,8,9-tetrahydropyrido[3',2':4,5]py rrolo[1,2-a]pyrazine-2-carboxamide]",–,–,A (A is defined as 0% ≤ substrate protein remaining % ≤ 80%),A (A is defined as 0% ≤ substrate protein remaining % ≤ 80%)
–,–,"C[C@@H]1CNC(=O)c2cc3ccc(C(=O)Nc4cnn(Cc5ccc(N6CCN(Cc7ccc(N8CCC(=O)NC8=O)cn7)CC6)cc5)c4)nc3n21 [GT-07929, (R)-N-(1-(4-(4-((5-(2,4-dioxotetrahydropyrimidin-1(2H)-yl)pyridin-2-yl)methyl)piperazin-1-yl)benzyl)-1H-pyrazol-4-yl)-9-methyl-6-oxo-6,7,8,9-tetrahydropyrido[3',2':4,5]py rrolo[1,2-a]pyrazine-2-carboxamide]",–,–,A (A is defined as 0% ≤ substrate protein remaining % ≤ 80%),B (B is defined as substrate protein remaining % > 80%)
–,–,"C[C@@H]1CNC(=O)c2cc3ccc(C(=O)Nc4cnn(Cc5ccc(N6CCN(Cc7ccc(N8CCC(=O)NC8=O)nc7)CC6)cc5)c4)nc3n21 [GT-07930, (R)-N-(1-(4-(4-((6-(2,4-dioxotetrahydropyrimidin-1(2H)-yl)pyridin-3-yl)methyl)piperazin-1-yl)benzyl)-1H-pyrazol-4-yl)-9-methyl-6-oxo-6,7,8,9-tetrahydropyrido[3',2':4,5]py rrolo[1,2-a]pyrazine-2-carboxamide]",–,–,A (A is defined as 0% ≤ substrate protein remaining % ≤ 80%),B (B is defined as substrate protein remaining % > 80%)
